According to ChEMBL document CHEMBL4699511, “Cedrol, a Sesquiterpene Alcohol, Enhances the Anticancer Efficacy of Temozolomide in Attenuating Drug Resistance via Regulation of the DNA Damage Response and MGMT Expression” (J Nat Prod, 2020):
Calls of active or inactive are those of the source. The calls are words filed in the database; no cut-off is given here.

Columns and labels:
[1] = system: DBTRG-05MG; assay: Synergistic cytotoxicity against human DBTRG-05MG cells assessed as combination index at 112.4 uM after 48 hrs in presence of 309 uM TMZ by MTT assay; format: functional
[2] = system: DBTRG-05MG; assay: Synergistic cytotoxicity against human DBTRG-05MG cells assessed as combination index at 134.9 uM after 48 hrs in presence of 515.1 uM TMZ by MTT assay; format: functional
[3] = system: RG2; assay: Synergistic cytotoxicity against rat RG2 cells assessed as combination index at 89.9 uM after 48 hrs in presence of 412.1 uM TMZ by MTT assay; format: functional
[4] = system: RG2; assay: Synergistic cytotoxicity against rat RG2 cells assessed as combination index at 112.4 uM after 48 hrs in presence of 412.1 uM TMZ by MTT assay; format: functional
[5] = Synergistic cytotoxicity against rat CTX TNA2 cells assessed as combination index at 89.9 uM after 48 hrs in presence of 309 uM TMZ by MTT assay; format: cell-based; settings: ctx tna2, 48 h
[6] = Synergistic cytotoxicity against rat CTX TNA2 cells assessed as combination index at 89.9 uM after 48 hrs in presence of 515.1 uM TMZ by MTT assay; format: cell-based; settings: ctx tna2, 48 h
[7] = system: DBTRG-05MG; assay: Induction of cell cycle arrest in human DBTRG-05MG cells assessed as accumulation at G0/G1 phase at 112.4 uM after 12 hrs in presence of TMZ by propidium iodide staining based flow cytometric analysis (reference value: 47.16 +/- 1.55%); format: functional
[8] = system: DBTRG-05MG; assay: Induction of cell cycle arrest in human DBTRG-05MG cells assessed as accumulation at S phase at 112.4 uM after 24 hrs in presence of TMZ by propidium iodide staining based flow cytometric analysis (reference value: 22.76 +/- 1.56%); format: functional
[9] = system: RG2; assay: Induction of cell cycle arrest in rat RG2 cells assessed as accumulation at G2/M phase at 112.4 uM after 6 hrs by propidium iodide staining based flow cytometric analysis (reference value: 20.04 +/- 0.55%); format: functional
[10] = system: RG2; assay: Induction of cell cycle arrest in rat RG2 cells assessed as accumulation at S phase at 112.4 uM after 12 hrs by propidium iodide staining based flow cytometric analysis (reference value: 20.15 +/- 2.44%); format: functional
[11] = system: RG2; assay: Induction of cell cycle arrest in rat RG2 cells assessed as accumulation at S phase at 112.4 uM after 24 hrs by propidium iodide staining based flow cytometric analysis (reference value: 20.15 +/- 2.44%); format: functional
[12] = system: DBTRG-05MG; assay: Induction of cell cycle arrest in human DBTRG-05MG cells assessed as CyclinD1 expression at 112.4 uM after 48 hrs by Western blot analysis (reference value: 1); format: functional
[13] = system: DBTRG-05MG; assay: Induction of cell cycle arrest in human DBTRG-05MG cells assessed as CyclinB1 expression at 112.4 uM after 48 hrs by Western blot analysis (reference value: 1); format: functional
[14] = system: RG2; assay: Induction of cell cycle arrest in rat RG2 cells assessed as CDK4 expression at 112.4 uM after 48 hrs in presence of TMZ by Western blot analysis (reference value: 1); format: functional
[15] = Effect on JNK expression in rat RG2 cells at 112.4uM after 48 hrs by Western blot analysis (reference value: 1); format: functional
[16] = system: DBTRG-05MG; assay: Induction of apoptosis in human DBTRG-05MG cells assessed as cleaved PARP expression at 112.4 uM after 48 hrs by Western blot analysis (reference value: 1); format: functional
[17] = system: DBTRG-05MG; assay: Induction of apoptosis in human DBTRG-05MG cells assessed as phosphorylated PARP expression at 112.4 uM after 48 hrs in presence of TMZ by Western blot analysis (reference value: 1); format: functional
[18] = system: DBTRG-05MG; assay: Induction of apoptosis in human DBTRG-05MG cells assessed as cleaved PARP expression at 112.4 uM after 48 hrs in presence of TMZ by Western blot analysis (reference value: 1); format: functional
[19] = system: RG2; assay: Induction of apoptosis in rat RG2 cells assessed as Bax expression at 112.4 uM after 48 hrs by Western blot analysis (reference value: 1); format: functional
[20] = system: RG2; assay: Induction of apoptosis in rat RG2 cells assessed as cleaved caspace-9 expression at 112.4 uM after 48 hrs in presence of TMZ by Western blot analysis (reference value: 1); format: functional
[21] = system: RG2; assay: Induction of apoptosis in rat RG2 cells assessed as phosphorylated PARP expression at 112.4 uM after 48 hrs in presence of TMZ by Western blot analysis (reference value: 1); format: functional
[22] = system: RG2; assay: Induction of DNA damage in rat RG2 cells assessed as Chk1 phosphorylation at ser345 at 112.4 uM after 48 hrs in presence of TMZ by Western blot analysis (reference value: 1); format: functional
[23] = system: DBTRG-05MG; assay: Inhibition of TMZ-induced drug resistance in human DBTRG-05MG cells assessed as reduction in MGMT protein expression at 112.4 uM after 48 hrs by Immunohistochemistry method; format: functional, cell-based
[24] = Effect of MDR1 expression in rat RG2 cells at 112.4 uM after 48 hrs by Western blot analysis; format: functional
[25] = Toxicity in BALB/c mouse xenografted with DBTRG-05MG cells assessed as inflammatory cell infiltration score in liver at 75 mg/kg, sc co-treated with TMZ for 18 days by H and E staining-based bright field microscopic analysis; format: organism-based; settings: in vivo, 432 h, time 18 day
[26] = Toxicity in BALB/c mouse xenografted with DBTRG-05MG cells assessed as inflammatory cell infiltration score in liver at 5 mg/kg, ip for 5 days by H and E staining-based bright field microscopic analysis; format: organism-based; settings: in vivo, 120 h, time 5 day
[27] = system: RG2; assay: Induction of cell cycle arrest in rat RG2 cells assessed as accumulation at G0/G1 phase at 206 uM after 48 hrs by propidium iodide staining based flow cytometric analysis (reference value: 57.81 +/- 1.9%); format: functional
[28] = system: RG2; assay: Induction of cell cycle arrest in rat RG2 cells assessed as accumulation at G2/M phase at 206 uM after 48 hrs by propidium iodide staining based flow cytometric analysis (reference value: 20.04 +/- 0.55%); format: functional
[29] = system: DBTRG-05MG; assay: Induction of cell cycle arrest in human DBTRG-05MG cells assessed as CDK4 expression at 206 uM after 48 hrs by Western blot analysis (reference value: 1); format: functional
[30] = system: DBTRG-05MG; assay: Induction of cell cycle arrest in human DBTRG-05MG cells assessed as CyclinA expression at 206 uM after 48 hrs by Western blot analysis (reference value: 1); format: functional
[31] = Effect on ERK expression in rat RG2 cells at 206 uM after 48 hrs by Western blot analysis (reference value: 1); format: functional
[32] = system: RG2; assay: Induction of apoptosis in rat RG2 cells assessed as cleaved caspace-3 expression at 206 uM after 48 hrs by Western blot analysis (reference value: 1); format: functional
[33] = system: RG2; assay: Induction of DNA damage in rat RG2 cells assessed as Chk1 phosphorylation at ser345 at 206 uM after 48 hrs by Western blot analysis (reference value: 1); format: functional
[34] = system: DBTRG-05MG; assay: Induction of DNA damage in human DBTRG-05MG cells assessed as Chk2 phosphorylation at Thr68 residues at 206 uM after 48 hrs by Western blot analysis (reference value: 1); format: functional

`C[C@@H]1CC[C@H]2C(C)(C)[C@H]3C[C@@]12CC[C@@]3(C)O` [CEDROL] showed a CI [1] of 0.57, a CI [2] of 0.68 and a CI [3] of 1.34. It also gave a CI [4] of 0.99, a CI [5] of 1.13 and a CI [6] of 0.89. For the same molecule, the Activity [7] was 49.57%, the Activity [8] was 14.17% and the Activity [9] was 21.06%. For the same molecule, the Activity [10] was 16.92%, the Activity [11] was 9.09% and the “fold change (FC)” value [12] was 0.7. The “fold change (FC)” value [13] was 0.5, the “fold change (FC)” value [14] was 0.5 and the “fold change (FC)” value [15] was 0.8. For the same molecule, the “fold change (FC)” value [16] was 1, the “fold change (FC)” value [17] was 0.4 and the “fold change (FC)” value [18] was 1.9. The “fold change (FC)” value [19] was 1.1, the “fold change (FC)” value [20] was 1.8 and the “fold change (FC)” value [21] was 0.5. The “fold change (FC)” value [22] was 3.5, the inhibition [23] was “Active” and the “fold change (FC)” value [24] was 2.1. For the same molecule, the Activity [25] was 1.23 and the Activity [26] was 2.38.
For `Cn1nnc2c(C(N)=O)ncn2c1=O` [TEMOZOLOMIDE], the Activity [27] was 26.97%, the Activity [28] was 54.71% and the “fold change (FC)” value [29] was 0.7. The “fold change (FC)” value [30] was 1.9, the “fold change (FC)” value [31] was 1.1 and the “fold change (FC)” value [32] was 2.5. The “fold change (FC)” value [33] was 1.8 and the “fold change (FC)” value [34] was 2.
